From patent publication US12115184B2, “Amorphous calcium carbonate stabilized with polyphosphates or bisphosphonates” (AMORPHICAL LTD., priority 2015, dated 2024)

Tested on: 4T1 tumor cells
Test: Mouse bone metastasis model, intratibial 4T1 cells
Format: in vivo, mouse (BALB/c)
Details: for survival rate compared with the other groups: FIG. 8, days 13-27; for clinical signs scoring compared with the other groups: FIG. 9, days 0-27, high scoring = more clinical signs
Description: The purpose of this study was to assess the potential therapeutic efficacy of ACC stabilized with triphosphate (ACC-TP) on the development and progression of bone metastases in mouse model via intraperitoneal (IP) injections. The model is induced by intra osseous inoculation of 4T1 tumor cells (cells originated from mice mammary gland tumor). Two ACC concentrations were examined. Their efficacy was compared to CaCl2 as a control calcium source and to a common treatment of bone metastases (Bisphosphonate—Alendronic acid).
The study was designed in order to assess the potential therapeutic efficacy of ACC-TP via intraperitoneal (IP) injections, on the development and progression of bone metastases in mouse model. The cancer model was induced by Intratibial injections of cancer cells to the Tibia bone. Intratibial injections are used when focusing on the relationships of cancer cells and bone after a tumor has metastasized, thus is considered the most appropriate for such studies.
Female mice (BALB/c, 9 weeks old) were used for the experiment. […] Initial body weight was 16-19 gr. The mice were let to acclimatize 5 days prior to the experiment.
The first control or test items administration day was defined as “Day 1”. On study day “0” all mice were anesthetized used intraperitoneal injection of Ketamine (80 mg/kg) and Xylazine (5 mg/kg). 4T1 (CRL-2539, B1) cells were injected intratibial into the Tibia in a dose level of 70×10^3 cells and dose volume of 10 μl per animal.
The control or test Items comprising calcium were administered intraperitoneally by a 25 G needle, daily (6 days a week) from Day 1 until study termination. The Alendronic acid was administered subcutaneously once a day, 3 days a week.
At study termination (Day 23 and Day 27), animals were […] by CO2 asphyxiation.
The following measurements and observations were recorded: (i) Mortality and morbidity (daily); (ii) Clinical signs observations (twice a week); (iii) Body weight measurements (once a week and at study termination); (iv) Radiographic analysis; and (v) Amount of food and water consumption (once a week).
Observations were performed for any changes in skin, fur, eyes, mucous membranes, respiratory, occurrence of secretions and excretions (e.g. diarrhea). Changes in gait, posture and response to handling, as the presence of bizarre behavior, tremors, convulsions, sleep and coma were also included.
X-ray monitoring were performed at Day “0” and Day “20” (X-ray generator Girth 8015).

[1] = after intratibial 4T1 injection on day 0

Row | Compound | survival rate compared with the other groups | clinical signs scoring compared with the other groups | day up to which no mice had deceased [1] [days] | overall performance / therapeutic effect (conclusion from survival rate and clinical signs) | mice deceased as early as day [1] [days] | survival percentages (up to day 23 of study duration)
1 | NCCCC(O)(P(=O)(O)O)P(=O)(O)O [Alendronic acid] | survival rate is lower | highest scoring of clinical signs | 19 | worst performance | – | –
2 | [Ca+2].[Cl-].[Cl-] [CaCl2, calcium chloride] | lower survival percentage | higher number of clinical signs | – | – | 16 | higher than 75%
